Laboratory results reported in patent US12193460B2, “Highly soluble steviol glycosides” (PureCircle USA Inc., priority 2016, dated 2025).
Where two headings read alike, the source gives them in different places.

Legend:
[1] = room temperature (25° C.); related art; cited from earlier work
[2] = Water solubility in RO water at room temperature (25° C.); format: physicochemical; conditions: g per 100 g solvent
Description: Hereinafter, unless specified otherwise, the solubility of material is determined in RO (reverse osmosis) water at room temperature (25° C.). Where the solubility is expressed as “%” it to be understood as number of grams of material soluble in 100 grams of solvent.
The material is deemed soluble at certain concentration if the produced solution has <10 FAU (Formazin Attenuation Unit) turbidity value.

[3] = cited from earlier work; for Rate of dissolution in H2O at 25° C.: grade in words
[4] = Prakash et al., 2008, cited from earlier work

For `C=C1C[C@@]23CC[C@H]4[C@@](C)(CCC[C@@]4(C)C(=O)O[C@@H]4O[C@H](CO)[C@@H](O)[C@H](O)[C@H]4O[C@@H]4O[C@H](CO)[C@@H](O)[C@H](O)[C@H]4O)[C@@H]2CC[C@]1(O[C@@H]1O[C@H](CO)[C@@H](O)[C@H](O[C@@H]2O[C@H](CO)[C@@H](O)[C@H](O)[C@H]2O)[C@H]1O[C@@H]1O[C@H](CO)[C@@H](O)[C@H](O)[C@H]1O)C3` [Rebaudioside D], which water solubility [1] is on record?
Its water solubility is “less than 0.05%”.

What does the source list for `C=C1C[C@@]23CC[C@H]4[C@@](C)(CCC[C@@]4(C)C(=O)O[C@@H]4O[C@H](CO)[C@@H](O)[C@H](O[C@@H]5O[C@H](CO)[C@@H](O)[C@H](O)[C@H]5O)[C@H]4O[C@@H]4O[C@H](CO)[C@@H](O)[C@H](O)[C@H]4O)[C@@H]2CC[C@]1(O[C@@H]1O[C@H](CO)[C@@H](O)[C@H](O[C@@H]2O[C@H](CO)[C@@H](O)[C@H](O)[C@H]2O)[C@H]1O[C@@H]1O[C@H](CO)[C@@H](O)[C@H](O)[C@H]1O)C3` [Rebaudioside M]?
solubility in water ([2]; listed as Crystalline Rebaudioside M): 0%-0.1; water solubility [1]: about 0.1%

Which “Rate of dissolution in H2O at 25° C.” value [3] does the source give for `C=C1C[C@@]23CC[C@H]4[C@@](C)(CCC[C@@]4(C)C(=O)O[C@@H]4O[C@H](CO)[C@@H](O)[C@H](O)[C@H]4O)[C@@H]2CC[C@]1(O[C@@H]1O[C@H](CO)[C@@H](O)[C@H](O[C@@H]2O[C@H](CO)[C@@H](O)[C@H](O)[C@H]2O)[C@H]1O[C@@H]1O[C@H](CO)[C@@H](O)[C@H](O)[C@H]1O)C3` [Form 3, Rebaudioside A] here?
The value was “High”.

And the “Rate of dissolution in H2O at 25° C. (% dissolved)” value (“Rate of dissolution … (% dissolved)” for short) ([3]; in 5 minutes)?
Its value is > 30%.

With `C=C1C[C@@]23CC[C@H]4[C@@](C)(CCC[C@@]4(C)C(=O)O[C@@H]4O[C@H](CO)[C@@H](O)[C@H](O)[C@H]4O)[C@@H]2CC[C@]1(O[C@@H]1O[C@H](CO)[C@@H](O)[C@H](O[C@@H]2O[C@H](CO)[C@@H](O)[C@H](O)[C@H]2O)[C@H]1O[C@@H]1O[C@H](CO)[C@@H](O)[C@H](O)[C@H]1O)C3` [Form 4, Rebaudioside A] as the compound, how does the “Rate of dissolution in H2O at 25° C.” value [3] read?
The value was “High”.

What about the “Rate of dissolution … (% dissolved)” value ([3]; in 5 minutes) of the same compound?
The value was > 35%.

What about the “solubility (in words)” value ([4]; listed as rebaudioside A amorphous forms) of the same compound?
The value was “high solubility”.

Which “Rate of dissolution in H2O at 25° C.” value [3] does the source give for `C=C1C[C@@]23CC[C@H]4[C@@](C)(CCC[C@@]4(C)C(=O)O[C@@H]4O[C@H](CO)[C@@H](O)[C@H](O)[C@H]4O)[C@@H]2CC[C@]1(O[C@@H]1O[C@H](CO)[C@@H](O)[C@H](O[C@@H]2O[C@H](CO)[C@@H](O)[C@H](O)[C@H]2O)[C@H]1O[C@@H]1O[C@H](CO)[C@@H](O)[C@H](O)[C@H]1O)C3` [Form 2, Rebaudioside A] here?
Its value is “Intermediate”.

What about the “Rate of dissolution … (% dissolved)” value ([3]; in 5 minutes) of the same compound?
Its value is “(<30% in 5”.

With `C=C1C[C@@]23CC[C@H]4[C@@](C)(CCC[C@@]4(C)C(=O)O[C@@H]4O[C@H](CO)[C@@H](O)[C@H](O)[C@H]4O)[C@@H]2CC[C@]1(O[C@@H]1O[C@H](CO)[C@@H](O)[C@H](O[C@@H]2O[C@H](CO)[C@@H](O)[C@H](O)[C@H]2O)[C@H]1O[C@@H]1O[C@H](CO)[C@@H](O)[C@H](O)[C@H]1O)C3` [Form 1, Rebaudioside A] as the compound, how does the “Rate of dissolution in H2O at 25° C.” value [3] read?
Its value is “Very low”.

And the “Rate of dissolution … (% dissolved)” value ([3]; in 60 minutes)?
Its value is “(<0.2% in 60”.

What about the “solubility (in words)” value ([4]; listed as hydrate form of Rebaudioside A) of the same compound?
Its value is “lowest solubility”.

For `C=C1C[C@@]23CC[C@H]4[C@@](C)(CCC[C@@]4(C)C(=O)O[C@@H]4O[C@H](CO)[C@@H](O)[C@H](O[C@@H]5O[C@H](CO)[C@@H](O)[C@H](O)[C@H]5O)[C@H]4O[C@@H]4O[C@H](CO)[C@@H](O)[C@H](O)[C@H]4O)[C@@H]2CC[C@]1(O[C@@H]1O[C@H](CO)[C@@H](O)[C@H](O[C@@H]2O[C@H](CO)[C@@H](O)[C@H](O)[C@H]2O)[C@H]1O[C@@H]1O[C@H](CO)[C@@H](O)[C@H](O)[C@H]1O)C3` [rebaudioside M], which solubility in water [2] is on record?
The solubility in water was 2%.
